Key:
DUSP22 = assay: Compound profiling, phosphatase panel (Eurofins); type: biochemical; details: relative to DMSO
Text: (§1) 125 Compound profiling - Selected compounds were profiled against a panel of protein
(§2) 126 phosphatases at Eurofins Pharma Discovery Services Ltd., Dundee, UK.

MKP5 (DUSP10) = assay: Compound profiling, phosphatase panel (Eurofins); type: biochemical; details: relative to DMSO
Text: as §1, §2

PP1a = assay: Compound profiling, phosphatase panel (Eurofins); type: biochemical; details: relative to DMSO
Text: as §1, §2

PP2A = assay: Compound profiling, phosphatase panel (Eurofins); type: biochemical; details: relative to DMSO
Text: as §1, §2

PTPN1 (PTP1B) = assay: Compound profiling, phosphatase panel (Eurofins); type: biochemical; details: relative to DMSO
Text: as §1, §2

PTPN11 (SHP-2) = assay: Compound profiling, phosphatase panel (Eurofins); type: biochemical; details: relative to DMSO
Text: as §1, §2

PTPN2 (TCPTP) = assay: Compound profiling, phosphatase panel (Eurofins); type: biochemical; details: relative to DMSO
Text: as §1, §2

PTPN22 = assay: Compound profiling, phosphatase panel (Eurofins); type: biochemical; details: relative to DMSO
Text: as §1, §2

PTPN4 (MEG1) = assay: Compound profiling, phosphatase panel (Eurofins); type: biochemical; details: relative to DMSO
Text: as §1, §2

PTPN6 (SHP-1) = assay: Compound profiling, phosphatase panel (Eurofins); type: biochemical; details: relative to DMSO
Text: as §1, §2

PTPN7 (HePTP) = assay: Compound profiling, phosphatase panel (Eurofins); type: biochemical; details: relative to DMSO
Text: as §1, §2

PTPN9 (MEG2) = assay: Compound profiling, phosphatase panel (Eurofins); type: biochemical; details: relative to DMSO
Text: as §1, §2

PTPRC (CD45) = assay: Compound profiling, phosphatase panel (Eurofins); type: biochemical; details: relative to DMSO
Text: as §1, §2

TMDP (DUSP13) = assay: Compound profiling, phosphatase panel (Eurofins); type: biochemical; details: relative to DMSO
Text: as §1, §2

VHR (DUSP3) = assay: Compound profiling, phosphatase panel (Eurofins); type: biochemical; details: relative to DMSO
Text: as §1, §2

HeLa cells = assay: Cell viability assay on HeLa cells; type: cell-based; details: Homo sapiens, 48h treatment
Method: 75 Cell culture - Wild-type HeLa and Kyoto HeLa cells stably expressing mCherry-H2B
76 were maintained in DMEM+L-Glutamine (Gibco, Life Technologies, USA)
77 supplemented with 5% fetal calf serum (FCS) (Gibco) and penicillin-streptomycin (100
78 U/ml - 100 µg/ml) (Gibco). […]
87 Cell viability assays - Compounds viability upon 48h treatment with the compounds was
88 assessed as described 4. Data were plotted with Prism 7® and analyzed by non-linear
89 regression. Comparison of single curve fitting to all data set within an experiment was
90 performed with the extra sum-of-squares F-test to determine P values. […]

zebrafish embryos = type: in vivo; details: 10 µM (effective dose)
Method: Implantation of HCT116 cells into zebrafish embryos were carried out essentially as previously described. Briefly, HCT116 cells were cultured in McCoy’s medium supplemented with 10% FCS and penicillin/streptomycin until ~80% confluence, then labeled for 30 min at 37 °C in 6 μg/mL 1,1′-dioctadecyl-3,3,3′,3′-tetramethylindocarbocyanine perchlorate (DiI, Sigma) in PBS followed by washing 3x in PBS. Labeled cells were implanted in the perivitelline space of 48 hours post-fertilization (hpf) wildtype (AB) zebrafish embryos, kept from the 1-cell stage in 1-phenyl-2-thiourea (PTU)-containing E3-water. […] As control, embryos were incubated in PTU-E3 with 0.1% DMSO (vehicle). Tumor-bearing embryos were incubated at 36 °C for three days and the change in tumor volume was evaluated as the size of the tumors at three days post-implantation (3 dpi) relative to the size immediately after implantation (0 dpi). Metastasis was evaluated at 3 dpi as the number of tumor cells present in the caudal hematopoietic plexus, the main metastatic site for tumors implanted in the perivitelline space.

## O=C1C=C(c2ccc(O)cc2O)C(=O)c2c(O)cccc21 [UPD-140, 2-(2′,4′-dihydroxyphenyl)-8-hydroxy-1,4-naphthoquinone]
DUSP22; UPD-140 1.5 µM
  remaining activity (%): 90 ± 4%
MKP5 (DUSP10); UPD-140 1.5 µM
  remaining activity (%): 109%
PP1a; UPD-140 1.5 µM
  remaining activity (%): 89 ± 2%
PP2A; UPD-140 1.5 µM
  remaining activity (%): 95 ± 2%
PTPN1 (PTP1B); UPD-140 1.5 µM
  remaining activity (%): 95 ± 5%
PTPN11 (SHP-2); UPD-140 1.5 µM
  remaining activity (%): 96 ± 2%
PTPN2 (TCPTP); UPD-140 1.5 µM
  remaining activity (%): 87 ± 8%
PTPN22; UPD-140 1.5 µM
  remaining activity (%): 99 ± 5%
PTPN4 (MEG1); UPD-140 1.5 µM
  remaining activity (%): 87 ± 1%
PTPN6 (SHP-1); UPD-140 1.5 µM
  remaining activity (%): 78 ± 2%
PTPN7 (HePTP); UPD-140 1.5 µM
  remaining activity (%): 95%
PTPN9 (MEG2); UPD-140 1.5 µM
  remaining activity (%): 89%
PTPRC (CD45); UPD-140 1.5 µM
  remaining activity (%): 103 ± 2%
TMDP (DUSP13); UPD-140 1.5 µM
  remaining activity (%): 105 ± 4%
VHR (DUSP3); UPD-140 1.5 µM
  remaining activity (%): 106 ± 4%
HeLa cells
  IC50: 1200 nM
Zebrafish embryos
  tolerability / overt toxicity: well tolerated

## O=C1C(c2ccc(O)cc2O)=CC(=O)c2c(O)cccc21 [UPD-176, 5-hydroxy-2-(2,4-dihydroxyphenyl)naphthalene-1,4-dione]
HeLa cells
  IC50: 1080 nM
Zebrafish embryos
  tolerability / overt toxicity: well tolerated

## COc1cccc(SC2=CC(=O)c3cccc(O)c3C2=O)c1 [UPD-795, 2-(3-methoxyphenylthio)-8-hydroxynaphthalene-1,4-dione]
DUSP22; UPD-795 1 µM
  remaining activity (%): 92 ± 3%
MKP5 (DUSP10); UPD-795 1 µM
  remaining activity (%): 107 ± 1%
PP1a; UPD-795 1 µM
  remaining activity (%): 88 ± 1%
PP2A; UPD-795 1 µM
  remaining activity (%): 94 ± 1%
PTPN1 (PTP1B); UPD-795 1 µM
  remaining activity (%): 94 ± 7%
PTPN11 (SHP-2); UPD-795 1 µM
  remaining activity (%): 91 ± 14%
PTPN2 (TCPTP); UPD-795 1 µM
  remaining activity (%): 99 ± 2%
PTPN22; UPD-795 1 µM
  remaining activity (%): 98 ± 1%
PTPN4 (MEG1); UPD-795 1 µM
  remaining activity (%): 94 ± 1%
PTPN6 (SHP-1); UPD-795 1 µM
  remaining activity (%): 80 ± 3%
PTPN7 (HePTP); UPD-795 1 µM
  remaining activity (%): 87 ± 2%
PTPN9 (MEG2); UPD-795 1 µM
  remaining activity (%): 85 ± 5%
PTPRC (CD45); UPD-795 1 µM
  remaining activity (%): 97 ± 2%
TMDP (DUSP13); UPD-795 1 µM
  remaining activity (%): 100%
VHR (DUSP3); UPD-795 1 µM
  remaining activity (%): 108 ± 4%
